{"source": "ChEMBL document CHEMBL5365473", "about": "“Novel Sulfonylurea-Based NLRP3 Inflammasome Inhibitor for Efficient Treatment of Nonalcoholic Steatohepatitis, Endotoxic Shock, and Colitis” (J Med Chem, 2023)", "key": {"Mus musculus [1]": {"system": "Mus musculus", "test": "Antiinflammatory activity against MCD diet-induced NASH C57BL/6 mouse model assessed as improvement in liver morphology at 40 mg/kg, po administered via gavage for 5 weeks by Masson's trichrome staining based analysis", "type": "functional, organism-based"}, "[2]": {"target": "NACHT, LRR and PYD domains-containing protein 3 (Mus musculus, UniProt Q8R4B8)", "sequence (Q8R4B8 whole entry, the tested form may be a part)": "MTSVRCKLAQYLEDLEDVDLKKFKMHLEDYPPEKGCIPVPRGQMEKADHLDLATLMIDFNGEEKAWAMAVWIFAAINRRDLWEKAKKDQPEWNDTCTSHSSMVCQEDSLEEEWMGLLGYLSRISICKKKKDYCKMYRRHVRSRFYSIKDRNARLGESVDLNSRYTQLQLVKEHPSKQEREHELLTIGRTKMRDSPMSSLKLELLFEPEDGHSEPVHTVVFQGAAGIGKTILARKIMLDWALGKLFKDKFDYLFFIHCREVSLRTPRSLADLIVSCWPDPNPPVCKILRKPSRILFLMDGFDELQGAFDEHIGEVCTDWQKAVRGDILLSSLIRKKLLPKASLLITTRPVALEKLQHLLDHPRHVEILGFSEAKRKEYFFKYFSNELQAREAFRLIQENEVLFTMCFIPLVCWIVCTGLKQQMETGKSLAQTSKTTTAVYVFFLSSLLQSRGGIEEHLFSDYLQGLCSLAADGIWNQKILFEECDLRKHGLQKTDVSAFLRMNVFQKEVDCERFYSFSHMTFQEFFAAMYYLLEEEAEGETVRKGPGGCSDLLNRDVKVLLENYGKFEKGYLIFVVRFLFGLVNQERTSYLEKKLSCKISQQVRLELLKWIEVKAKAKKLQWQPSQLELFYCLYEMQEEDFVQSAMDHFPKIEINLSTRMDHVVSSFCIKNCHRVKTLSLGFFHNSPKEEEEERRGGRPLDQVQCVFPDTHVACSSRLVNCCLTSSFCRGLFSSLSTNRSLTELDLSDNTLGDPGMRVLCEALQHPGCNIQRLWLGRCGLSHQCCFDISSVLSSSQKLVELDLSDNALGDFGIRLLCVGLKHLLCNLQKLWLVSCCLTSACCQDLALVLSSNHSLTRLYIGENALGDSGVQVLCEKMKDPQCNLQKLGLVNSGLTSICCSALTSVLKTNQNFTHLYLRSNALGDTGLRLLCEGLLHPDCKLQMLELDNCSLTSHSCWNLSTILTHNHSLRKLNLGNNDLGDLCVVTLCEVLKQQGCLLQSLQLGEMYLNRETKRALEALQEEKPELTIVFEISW", "test": "Inhibition of NLRP3 inflammasome in mouse […] cells assessed as inhibition of LPS/ATP-induced IL-1 beta secretion primed with LPS for 4.5 hs followed by incubation with compound for 30 mins and later stimulation with ATP for 30 mins by ELISA", "type": "cell-based, J774.A1"}, "[3]": {"test": "Toxicity against female ICR mouse assessed as effect on spleen weight at 200 to 500 mg/kg administered via gavage for 12 days", "type": "organism-based", "conditions": "in vivo, po, 288 h, dose 200-500 mg/kg, time 12 day"}, "[4]": {"test": "Toxicity against female ICR mouse assessed as effect on lung weight at 200 to 500 mg/kg administered via gavage for 12 days", "type": "organism-based", "conditions": "in vivo, po, 288 h, dose 200-500 mg/kg, time 12 day"}, "[5]": {"test": "Toxicity against female ICR mouse assessed as effect on kidney weight at 200 to 500 mg/kg administered via gavage for 12 days", "type": "organism-based", "conditions": "in vivo, po, 288 h, dose 200-500 mg/kg, time 12 day"}, "[6]": {"test": "Toxicity against male ICR mouse assessed as effect on liver weight at 200 to 500 mg/kg administered via gavage for 12 days", "type": "organism-based", "conditions": "in vivo, po, 288 h, dose 200-500 mg/kg, time 12 day"}, "[7]": {"test": "Toxicity against male ICR mouse assessed as effect on lung weight at 200 to 500 mg/kg administered via gavage for 12 days", "type": "organism-based", "conditions": "in vivo, po, 288 h, dose 200-500 mg/kg, time 12 day"}, "[8]": {"test": "Toxicity against female ICR mouse assessed as effect on plasma creatinine level at 200 to 500 mg/kg administered via gavage for 12 days", "type": "organism-based", "conditions": "in vivo, po, 288 h, dose 200-500 mg/kg, time 12 day"}, "[9]": {"test": "Toxicity against male ICR mouse assessed as effect on ratio of plasma AST to ALT level at 200 to 500 mg/kg administered via gavage for 12 days", "type": "organism-based", "conditions": "in vivo, po, 288 h, dose 200-500 mg/kg, time 12 day"}, "[10]": {"test": "Toxicity against male ICR mouse assessed as effect on plasma creatinine level at 200 to 500 mg/kg administered via gavage for 12 days", "type": "organism-based", "conditions": "in vivo, po, 288 h, dose 200-500 mg/kg, time 12 day"}, "J774.A1 [11]": {"system": "J774.A1", "test": "Effect on NLRP3 protein expression in mouse J774.A1 cells at 3 to 30 nM primed with LPS for 4.5 hrs followed by incubation with compound for 2.5 hrs and later stimulated with ATP for 30 mins by immunoblot analysis", "type": "functional, cell-based", "conditions": "dose 3-30 nM, time 3.0 hrs"}, "J774.A1 [12]": {"system": "J774.A1", "test": "Effect on pro-IL-1 beta protein expression in mouse J774.A1 cells at 3 to 30 nM primed with LPS for 4.5 hrs followed by incubation with compound for 2.5 hrs and later stimulated with ATP for 30 mins by immunoblot analysis", "type": "functional, cell-based", "conditions": "dose 3-30 nM, time 3.0 hrs"}, "[13]": {"target": "NACHT, LRR and PYD domains-containing protein 3 (Homo sapiens) (UniProt Q96P20)", "sequence (Q96P20 whole entry, the tested form may be a part)": "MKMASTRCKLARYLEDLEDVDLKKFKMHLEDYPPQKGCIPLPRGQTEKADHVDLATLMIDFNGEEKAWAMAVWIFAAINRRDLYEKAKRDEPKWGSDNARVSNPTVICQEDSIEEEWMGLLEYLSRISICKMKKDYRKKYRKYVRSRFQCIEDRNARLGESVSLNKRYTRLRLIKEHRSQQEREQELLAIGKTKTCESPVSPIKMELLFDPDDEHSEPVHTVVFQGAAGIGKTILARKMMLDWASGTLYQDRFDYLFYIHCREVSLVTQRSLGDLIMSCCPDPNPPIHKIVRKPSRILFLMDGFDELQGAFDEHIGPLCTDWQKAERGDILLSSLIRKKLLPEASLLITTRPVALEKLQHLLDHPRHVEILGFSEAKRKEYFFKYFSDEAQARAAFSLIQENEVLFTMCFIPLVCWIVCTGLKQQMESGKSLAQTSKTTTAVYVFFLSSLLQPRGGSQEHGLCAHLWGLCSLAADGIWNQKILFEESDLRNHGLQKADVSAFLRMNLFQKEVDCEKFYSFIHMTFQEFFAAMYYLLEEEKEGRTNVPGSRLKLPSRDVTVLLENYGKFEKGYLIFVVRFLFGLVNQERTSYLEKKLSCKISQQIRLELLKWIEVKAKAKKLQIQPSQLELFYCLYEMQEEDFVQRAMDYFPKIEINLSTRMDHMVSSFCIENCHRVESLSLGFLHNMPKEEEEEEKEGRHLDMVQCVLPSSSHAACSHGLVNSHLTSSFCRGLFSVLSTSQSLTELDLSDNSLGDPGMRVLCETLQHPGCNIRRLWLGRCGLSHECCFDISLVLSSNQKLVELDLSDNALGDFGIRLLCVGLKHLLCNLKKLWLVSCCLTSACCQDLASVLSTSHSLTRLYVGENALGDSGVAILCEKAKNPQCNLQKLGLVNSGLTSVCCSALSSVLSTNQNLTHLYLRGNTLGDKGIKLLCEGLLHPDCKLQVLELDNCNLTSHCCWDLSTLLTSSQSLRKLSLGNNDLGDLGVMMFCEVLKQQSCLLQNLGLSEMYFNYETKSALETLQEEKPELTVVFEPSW", "test": "Inhibition of NLRP3 inflammasome in PMA-induced differentiated human THP-1 cells assessed as inhibition of caspase-1 activation primed with LPS for 4.5 hrs followed by incubation with compound for 2.5 hrs and later stimulated with ATP for 1 hr by immunoblot analysis", "type": "cell-based", "conditions": "dose 3-30 nM, time 3.5 hrs"}, "[14]": {"target": "NACHT, LRR and PYD domains-containing protein 3 (Homo sapiens) (UniProt Q96P20)", "test": "Inhibition of NLRP3 inflammasome in PMA-induced differentiated human THP-1 cells assessed as inhibition of IL-1 beta secretion primed with LPS for 4.5 hrs followed by incubation with compound for 2.5 hrs and later stimulated with ATP for 1 hr by immunoblot analysis", "type": "cell-based", "conditions": "dose 3-30 nM, time 3.5 hrs"}, "[15]": {"target": "NACHT, LRR and PYD domains-containing protein 3 (Mus musculus) (UniProt Q8R4B8)", "sequence (Q8R4B8 whole entry, the tested form may be a part)": "as the sequence (Q8R4B8 whole entry, the tested form may be a part) above", "test": "Inhibition of NLRP3 inflammasome in mouse J774.A1 cells assessed as inhibition of caspase-1 activation at 30 nM primed with LPS for 4.5 hrs followed by incubation with compound for 24 hrs and later stimulated with nigericin for 1 hr by immunoblot analysis", "type": "cell-based", "conditions": "time 25.0 hrs"}, "[16]": {"target": "NACHT, LRR and PYD domains-containing protein 3 (Mus musculus) (UniProt Q8R4B8)", "test": "Inhibition of NLRP3 inflammasome in mouse J774.A1 cells assessed as inhibition of IL-1 beta secretion at 30 nM primed with LPS for 4.5 hrs followed by incubation with compound for 24 hrs and later stimulated with nigericin for 1 hr by immunoblot analysis", "type": "cell-based", "conditions": "time 25.0 hrs"}, "THP-1": {"system": "THP-1", "test": "Effect on mitochondrial function in PMA-induced differentiated human THP-1 cells assessed as effect on extracellular ATP-induced decrease in mitochondrial membrane potential at 30 nM pretreated with compound for 24 hrs followed by stimulation with LPS for 4.5 hrs and ATP for 1 hr by MitoTracker red dye based confocal microscopy", "type": "functional, cell-based", "conditions": "time 29.5 hrs"}, "[17]": {"test": "Half life in ICR mouse at 5 mg/kg, iv by LC-MS/MS analysis", "type": "ADME, organism-based", "conditions": "in vivo"}, "[18]": {"test": "Tmax in ICR mouse at 5 mg/kg, iv by LC-MS/MS analysis", "type": "ADME, organism-based", "conditions": "in vivo"}, "[19]": {"test": "AUC (0 to infinity) in ICR mouse at 5 mg/kg, iv by LC-MS/MS analysis", "type": "ADME, organism-based", "set-up": "dose 5 mg/kg, route iv", "conditions": "in vivo"}, "[20]": {"test": "Half life in ICR mouse at 10 mg/kg, po by LC-MS/MS analysis", "type": "ADME, organism-based", "conditions": "in vivo"}, "[21]": {"test": "Drug uptake in Sprague-Dawley rat stomach at 50 mg/kg, po measured for 24 hrs by LC-MS/MS analysis", "type": "ADME, organism-based", "conditions": "in vivo"}, "[22]": {"test": "Drug uptake in Sprague-Dawley rat liver at 50 mg/kg, po measured for 24 hrs by LC-MS/MS analysis", "type": "ADME, organism-based", "conditions": "in vivo"}, "[23]": {"test": "Drug uptake in Sprague-Dawley rat heart at 50 mg/kg, po measured for 24 hrs by LC-MS/MS analysis", "type": "ADME, organism-based", "conditions": "in vivo"}, "[24]": {"test": "Drug uptake in Sprague-Dawley rat spleen at 50 mg/kg, po measured for 24 hrs by LC-MS/MS analysis", "type": "ADME, organism-based", "conditions": "in vivo"}, "Mus musculus [25]": {"system": "Mus musculus", "test": "Antiinflammatory activity against MCD diet-induced NASH C57BL/6 mouse model assessed as reduction in liver steatosis at 40 mg/kg, po administered via gavage for 5 weeks by H and E staining based analysis", "type": "functional, organism-based"}, "Mus musculus [26]": {"system": "Mus musculus", "test": "Antiinflammatory activity against MCD diet-induced NASH C57BL/6 mouse model assessed as reduction in balloon dilatation in liver at 40 mg/kg, po administered via gavage for 5 weeks by H and E staining based analysis", "type": "functional, organism-based"}, "Mus musculus [27]": {"system": "Mus musculus", "test": "Antiinflammatory activity against MCD diet-induced NASH C57BL/6 mouse model assessed as reduction in liver fibrosis at 40 mg/kg, po administered via gavage for 5 weeks by H and E staining based analysis", "type": "functional, organism-based"}, "Mus musculus [28]": {"system": "Mus musculus", "test": "Antiinflammatory activity against MCD diet-induced NASH C57BL/6 mouse model assessed as reduction in TUNEL-positive hepatic cells at 40 mg/kg, po administered via gavage for 5 weeks by TUNEL assay", "type": "functional, organism-based"}, "Mus musculus [29]": {"system": "Mus musculus", "test": "Antiinflammatory activity against MCD diet-induced NASH C57BL/6 mouse model assessed as reduction in immune cell infiltration by measuring reduction in F4/80-positive hepatic cells at 40 mg/kg, po administered via gavage for 5 weeks by immunofluorescence staining based analysis", "type": "functional, organism-based"}, "Mus musculus [30]": {"system": "Mus musculus", "test": "Antiinflammatory activity against LPS-induced lethal septic shock C57BL/6 mouse model assessed as increase in animal's survival rate at 20 mg/kg, ip administered for 1 hr prior to LPS challenge and measured for 72 hrs", "type": "functional", "conditions": "time 73 hrs"}, "Mus musculus [31]": {"system": "Mus musculus", "test": "Antiinflammatory activity against DSS-induced ulcerative colitis C57BL/6 mouse assessed as reduction in colon length shortening at 10 mg/kg, ip administered for 9 days and measured on day 10", "type": "functional, organism-based", "conditions": "time 10.0 day"}, "Mus musculus [32]": {"system": "Mus musculus", "test": "Antiinflammatory activity against DSS-induced ulcerative colitis C57BL/6 mouse assessed as reduction in massive loss of goblet cells in colon at 10 mg/kg, ip administered for 9 days and measured on day 10 by H and E staining based analysis", "type": "functional, organism-based", "conditions": "time 10.0 day"}}, "note": "Active and inactive are the calls of the source. No cut-off for these calls is given here.", "data": [{"smiles": "CN(C)Cc1ccc(S(=O)(=O)NC(=O)Nc2c3c(cc4c2CCC4)CCC3)cc1", "values": [{"measurement": "Activity", "setting": "Mus musculus [1]", "result": "Active"}, {"measurement": "IC50", "setting": "[2]", "result": 25, "unit": "nM"}, {"measurement": "Activity", "setting": "[3]", "result": "Non-Toxic"}, {"measurement": "Activity", "setting": "[4]", "result": "Non-Toxic"}, {"measurement": "Activity", "setting": "[5]", "result": "Non-Toxic"}, {"measurement": "Activity", "setting": "[6]", "result": "Non-Toxic"}, {"measurement": "Activity", "setting": "[7]", "result": "Non-Toxic"}, {"measurement": "Activity", "setting": "[8]", "result": "Non-Toxic"}, {"measurement": "Activity", "setting": "[9]", "result": "Non-Toxic"}, {"measurement": "Activity", "setting": "[10]", "result": "Non-Toxic"}, {"measurement": "Activity", "setting": "J774.A1 [11]", "result": "inactive"}, {"measurement": "Activity", "setting": "J774.A1 [12]", "result": "inactive"}, {"measurement": "inhibition", "setting": "[13]", "result": "Dose-Dependent Effect"}, {"measurement": "inhibition", "setting": "[14]", "result": "Dose-Dependent Effect"}, {"measurement": "inhibition", "setting": "[15]", "result": "Active"}, {"measurement": "inhibition", "setting": "[16]", "result": "Active"}, {"measurement": "Activity", "setting": "THP-1", "result": "inactive"}, {"measurement": "half-life", "setting": "[17]", "result": 4.01, "unit": "h"}, {"measurement": "Tmax", "setting": "[18]", "result": 4.98, "unit": "min"}, {"measurement": "AUC(0-inf)", "setting": "[19]", "result": 130, "unit": "µg·h/mL"}, {"measurement": "half-life", "setting": "[20]", "result": 3.5, "unit": "h"}, {"measurement": "Drug uptake", "setting": "[21]", "result": "Active"}, {"measurement": "Drug uptake", "setting": "[22]", "result": "Active"}, {"measurement": "Drug uptake", "setting": "[23]", "result": "Active"}, {"measurement": "Drug uptake", "setting": "[24]", "result": "Active"}, {"measurement": "Activity", "setting": "Mus musculus [25]", "result": "Active"}, {"measurement": "Activity", "setting": "Mus musculus [26]", "result": "Active"}, {"measurement": "Activity", "setting": "Mus musculus [27]", "result": "Active"}, {"measurement": "Activity", "setting": "Mus musculus [28]", "result": "Active"}, {"measurement": "Activity", "setting": "Mus musculus [29]", "result": "Active"}, {"measurement": "survival at 20 mg/kg", "setting": "Mus musculus [30]", "result": 20, "unit": "%"}, {"measurement": "Activity", "setting": "Mus musculus [31]", "result": "Active"}, {"measurement": "Activity", "setting": "Mus musculus [32]", "result": "Active"}]}]}
